Source: ChEMBL document CHEMBL1201862, “PubChem BioAssay data set” (2004)
Activity calls are given as the source filed them.

How the values were obtained:
Exodeoxyribonuclease V = Exodeoxyribonuclease V (Escherichia coli (strain K12), UniProt P04993+P07648+P08394); experiment: RecBCD inhibition via phage-restricted bacterial growth – absorbance, V66 E. coli, mutant T4 phage, counter-screen for AddAB inhibitor project, dose response (AID 492957); type: functional, cell-based, Escherichia coli str. K-12 substr. MG1655
Nonstructural protein 1 = Nonstructural protein 1 (Influenza A virus, UniProt Q194T2); type: functional, Influenza A virus (A/California/07/2009(H1N1))
[1] = biological target: Heat shock cognate 71 kDa protein (Homo sapiens, UniProt P11142); experiment: In Vitro Hsc70 Dose Response Fluorescence Polarization Assay. [Related pubchem assays: 1072 ]
[2] = biological target: T1, Tyrosine-protein phosphatase non-receptor type 7 (Homo sapiens, UniProt P35236); type: functional
T1 sequence (P35236 whole entry): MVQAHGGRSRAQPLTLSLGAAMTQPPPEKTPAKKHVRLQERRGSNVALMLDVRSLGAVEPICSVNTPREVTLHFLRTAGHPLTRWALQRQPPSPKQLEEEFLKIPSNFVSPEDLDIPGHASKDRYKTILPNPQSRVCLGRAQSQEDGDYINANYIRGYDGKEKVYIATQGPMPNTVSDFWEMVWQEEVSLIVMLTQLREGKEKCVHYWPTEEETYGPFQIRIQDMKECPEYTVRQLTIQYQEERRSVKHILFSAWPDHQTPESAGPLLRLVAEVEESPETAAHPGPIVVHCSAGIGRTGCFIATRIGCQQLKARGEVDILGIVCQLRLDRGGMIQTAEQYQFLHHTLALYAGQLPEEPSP

INS1 = experiment: INS-1E survival protection against cytokine death – cell-based, luminescence, retest, dose response (AID 449756); type: functional; conditions: Rattus norvegicus;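 further: cell death triggered by IL-1 beta plus TNF-alpha plus IFN-gamma mixture; protective hits raise ATP signal compared with cytokine alone wells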
[3] = biological target: Cyclin-dependent kinase 2 (Homo sapiens, UniProt P24941); type: functional;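 further: CDK2 measured as one member of a broad kinome profiling panel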
Ephrin type-A receptor 2 = Ephrin type-A receptor 2 (Homo sapiens, UniProt P29317); type: functional;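 further: EPHA2 tested as one member of a kinome-wide kinase panel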
Aurora kinase A = Aurora kinase A (Homo sapiens, UniProt O14965); type: functional;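 further: value from the Navigating the Kinome kinase panel profiling, panel entry STK6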
[4] = biological target: Interleukin-1 receptor-associated kinase 1 (Homo sapiens, UniProt P51617); type: functional;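 further: IRAK1 tested as one member of a kinome panel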
[5] = biological target: Serine/threonine-protein kinase BRSK1 (Homo sapiens, UniProt Q8TDC3); type: functional;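 further: measured within a kinome-wide kinase panel, with the target listed as KIAA1811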
[6] = biological target: Glycogen synthase kinase-3 beta (Homo sapiens, UniProt P49841); type: functional;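 further: value comes from a broad kinome profiling panel, with GSK3B as the panel member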
[7] = biological target: Dual specificity tyrosine-phosphorylation-regulated kinase 3 (Homo sapiens, UniProt O43781); type: functional;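 further: measured as one member of a broad kinase panel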
[8] = biological target: Mitogen-activated protein kinase 1 (Homo sapiens, UniProt P28482); type: functional
[9] = biological target: MAP kinase-activated protein kinase 2 (Homo sapiens, UniProt P49137); type: functional;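 further: measured as one member of a kinome-wide kinase panel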
[10] = biological target: Mitogen-activated protein kinase 8 (Homo sapiens, UniProt P45983); type: functional;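 further: value comes from one member of a kinome-wide kinase profiling panel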
[11] = biological target: Cell division cycle 7-related protein kinase (Homo sapiens, UniProt O00311); type: functional;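 further: value obtained from a kinome-wide kinase panel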
[12] = biological target: Phosphorylase b kinase gamma catalytic chain, liver/testis isoform (Homo sapiens, UniProt P15735); type: functional;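 further: PHKG2 measured as one member of a kinome-wide kinase panel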
Hexokinase HKDC1 = biological target: T2, Hexokinase HKDC1 (Homo sapiens, UniProt Q2TB90); experiment: analog inhibition of human HKDC1 activity – biochemical, set 2, SAR follow-up (AID 588355); type: functional
T2 sequence (Q2TB90 whole entry): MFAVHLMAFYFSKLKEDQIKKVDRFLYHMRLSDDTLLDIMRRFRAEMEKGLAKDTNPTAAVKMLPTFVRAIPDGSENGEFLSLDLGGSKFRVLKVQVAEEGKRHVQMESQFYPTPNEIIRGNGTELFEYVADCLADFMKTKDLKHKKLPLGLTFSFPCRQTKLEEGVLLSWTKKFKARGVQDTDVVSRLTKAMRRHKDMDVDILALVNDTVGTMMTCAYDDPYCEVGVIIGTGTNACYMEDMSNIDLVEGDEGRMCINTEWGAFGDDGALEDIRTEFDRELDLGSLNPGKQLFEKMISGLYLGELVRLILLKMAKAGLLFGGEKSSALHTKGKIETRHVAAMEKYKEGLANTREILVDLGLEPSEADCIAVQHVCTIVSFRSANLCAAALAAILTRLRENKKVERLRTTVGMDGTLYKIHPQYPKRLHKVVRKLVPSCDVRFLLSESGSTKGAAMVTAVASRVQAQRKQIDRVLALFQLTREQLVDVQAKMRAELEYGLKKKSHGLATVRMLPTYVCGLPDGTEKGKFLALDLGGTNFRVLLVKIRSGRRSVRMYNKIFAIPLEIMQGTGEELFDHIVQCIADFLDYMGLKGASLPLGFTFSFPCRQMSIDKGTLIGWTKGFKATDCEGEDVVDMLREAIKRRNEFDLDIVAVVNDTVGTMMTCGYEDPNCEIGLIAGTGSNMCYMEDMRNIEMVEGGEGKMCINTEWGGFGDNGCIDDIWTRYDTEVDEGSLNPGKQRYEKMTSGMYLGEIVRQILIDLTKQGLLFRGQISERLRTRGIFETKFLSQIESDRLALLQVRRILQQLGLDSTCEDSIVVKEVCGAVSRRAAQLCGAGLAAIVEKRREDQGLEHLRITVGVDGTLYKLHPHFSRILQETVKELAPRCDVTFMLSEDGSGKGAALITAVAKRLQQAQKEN

SUMO-activating enzyme = SUMO-activating enzyme (Homo sapiens, UniProt Q9UBT2); experiment: blockers of SAE1/SAE2–UBC9 SUMO transfer – biochemical, HTRF, uHTS, primary screen (AID 2006); type: protein-complex assay
[13] = biological target: T3, Oxysterols receptor LXR-beta (Homo sapiens, UniProt P55055); type: functional, cell-based;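 further: Cell-based luminescence dose-response assay of agonist activity at LXR, run as a confirmatory counterscreen to a daf-12 agonist screen; HEK293 cells with Gal4-LXR fusion and GAL4-driven luciferase reporter; agonist potency from rising luciferase signal of a Gal4-LXR reporter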
T3 sequence (P55055 whole entry): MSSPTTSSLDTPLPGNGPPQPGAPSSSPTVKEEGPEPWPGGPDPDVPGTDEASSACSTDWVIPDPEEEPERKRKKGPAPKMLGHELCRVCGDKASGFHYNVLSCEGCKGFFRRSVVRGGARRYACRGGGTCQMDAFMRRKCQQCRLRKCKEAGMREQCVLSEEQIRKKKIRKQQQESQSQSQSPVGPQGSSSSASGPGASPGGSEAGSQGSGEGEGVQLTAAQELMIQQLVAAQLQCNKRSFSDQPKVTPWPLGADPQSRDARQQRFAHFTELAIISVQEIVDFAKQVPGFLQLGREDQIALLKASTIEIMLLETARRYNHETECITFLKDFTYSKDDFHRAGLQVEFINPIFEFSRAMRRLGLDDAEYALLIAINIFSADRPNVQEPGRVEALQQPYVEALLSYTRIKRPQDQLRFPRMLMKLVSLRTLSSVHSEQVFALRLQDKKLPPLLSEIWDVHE

Cell division cycle 7-related protein kinase, sequence (O00311 whole entry, canonical isoform): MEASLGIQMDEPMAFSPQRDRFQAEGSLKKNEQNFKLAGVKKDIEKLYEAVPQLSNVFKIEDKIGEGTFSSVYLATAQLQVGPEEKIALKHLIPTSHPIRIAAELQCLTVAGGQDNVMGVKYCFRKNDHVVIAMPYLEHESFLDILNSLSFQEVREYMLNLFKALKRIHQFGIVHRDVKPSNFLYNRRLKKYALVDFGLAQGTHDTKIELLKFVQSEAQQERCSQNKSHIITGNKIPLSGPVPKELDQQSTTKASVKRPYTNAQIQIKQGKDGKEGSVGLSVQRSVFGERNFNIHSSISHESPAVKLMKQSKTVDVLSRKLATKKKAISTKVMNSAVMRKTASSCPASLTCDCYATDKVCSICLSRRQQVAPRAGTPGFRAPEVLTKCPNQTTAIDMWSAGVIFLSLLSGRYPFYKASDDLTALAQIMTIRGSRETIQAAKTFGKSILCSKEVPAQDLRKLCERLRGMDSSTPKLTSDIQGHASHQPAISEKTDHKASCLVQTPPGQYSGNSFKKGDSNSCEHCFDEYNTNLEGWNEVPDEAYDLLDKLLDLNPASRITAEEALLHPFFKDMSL
Interleukin-1 receptor-associated kinase 1, sequence (P51617 whole entry): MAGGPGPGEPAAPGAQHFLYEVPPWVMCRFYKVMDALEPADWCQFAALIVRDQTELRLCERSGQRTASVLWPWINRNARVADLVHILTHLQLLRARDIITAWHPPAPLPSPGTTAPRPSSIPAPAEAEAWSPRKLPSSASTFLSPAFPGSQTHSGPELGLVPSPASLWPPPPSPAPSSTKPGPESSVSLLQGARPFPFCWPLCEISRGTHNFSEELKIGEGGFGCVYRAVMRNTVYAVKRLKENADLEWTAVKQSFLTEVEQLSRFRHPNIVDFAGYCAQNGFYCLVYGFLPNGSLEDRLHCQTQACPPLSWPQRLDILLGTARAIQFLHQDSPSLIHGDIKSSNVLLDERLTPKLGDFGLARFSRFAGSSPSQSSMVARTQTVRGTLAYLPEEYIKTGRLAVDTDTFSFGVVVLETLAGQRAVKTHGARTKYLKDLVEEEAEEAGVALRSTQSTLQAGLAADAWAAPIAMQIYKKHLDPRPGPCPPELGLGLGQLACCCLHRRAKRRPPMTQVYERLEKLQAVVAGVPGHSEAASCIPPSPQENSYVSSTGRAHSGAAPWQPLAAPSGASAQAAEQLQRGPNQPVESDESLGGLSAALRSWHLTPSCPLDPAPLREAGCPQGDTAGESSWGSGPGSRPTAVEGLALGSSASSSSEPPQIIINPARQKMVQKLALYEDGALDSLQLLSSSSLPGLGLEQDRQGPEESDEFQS
Aurora kinase A, sequence (O14965 whole entry): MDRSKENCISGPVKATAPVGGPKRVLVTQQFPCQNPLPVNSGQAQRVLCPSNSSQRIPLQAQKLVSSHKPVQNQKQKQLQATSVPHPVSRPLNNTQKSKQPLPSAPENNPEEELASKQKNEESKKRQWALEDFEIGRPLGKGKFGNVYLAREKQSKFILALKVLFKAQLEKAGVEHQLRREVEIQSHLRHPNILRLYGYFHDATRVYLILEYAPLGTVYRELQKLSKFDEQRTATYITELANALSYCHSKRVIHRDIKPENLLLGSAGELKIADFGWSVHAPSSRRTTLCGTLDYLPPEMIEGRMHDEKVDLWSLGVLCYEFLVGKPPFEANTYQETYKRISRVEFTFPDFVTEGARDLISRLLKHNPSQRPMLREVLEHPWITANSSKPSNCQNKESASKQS
Dual specificity tyrosine-phosphorylation-regulated kinase 3, sequence (O43781 whole entry): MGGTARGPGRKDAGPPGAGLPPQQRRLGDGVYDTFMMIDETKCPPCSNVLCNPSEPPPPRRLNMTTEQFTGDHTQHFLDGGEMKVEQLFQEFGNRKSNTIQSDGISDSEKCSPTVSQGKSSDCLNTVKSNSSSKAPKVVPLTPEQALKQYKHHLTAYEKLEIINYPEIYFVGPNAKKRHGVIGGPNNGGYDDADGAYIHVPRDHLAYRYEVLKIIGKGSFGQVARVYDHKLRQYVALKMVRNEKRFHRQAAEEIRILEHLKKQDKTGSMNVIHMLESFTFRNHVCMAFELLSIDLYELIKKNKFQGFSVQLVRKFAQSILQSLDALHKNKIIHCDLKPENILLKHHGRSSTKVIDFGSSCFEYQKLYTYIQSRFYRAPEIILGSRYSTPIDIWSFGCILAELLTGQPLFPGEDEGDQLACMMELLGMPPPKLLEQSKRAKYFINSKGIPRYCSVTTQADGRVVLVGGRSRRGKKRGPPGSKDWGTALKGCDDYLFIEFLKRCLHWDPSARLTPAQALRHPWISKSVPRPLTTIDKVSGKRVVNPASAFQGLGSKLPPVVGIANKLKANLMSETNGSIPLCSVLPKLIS
Phosphorylase b kinase gamma catalytic chain, liver/testis isoform, sequence (P15735 whole entry, canonical isoform): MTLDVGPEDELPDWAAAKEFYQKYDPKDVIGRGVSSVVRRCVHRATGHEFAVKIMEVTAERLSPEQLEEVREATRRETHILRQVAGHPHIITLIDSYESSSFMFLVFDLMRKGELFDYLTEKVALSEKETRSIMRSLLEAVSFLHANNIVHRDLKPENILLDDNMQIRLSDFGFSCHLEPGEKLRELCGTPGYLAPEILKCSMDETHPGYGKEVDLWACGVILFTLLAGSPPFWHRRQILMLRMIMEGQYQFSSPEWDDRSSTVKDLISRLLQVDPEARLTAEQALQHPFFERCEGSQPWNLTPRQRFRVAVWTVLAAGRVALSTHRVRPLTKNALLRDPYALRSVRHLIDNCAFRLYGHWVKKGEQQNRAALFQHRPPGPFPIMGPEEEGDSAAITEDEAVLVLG
Ephrin type-A receptor 2, sequence (P29317 whole entry): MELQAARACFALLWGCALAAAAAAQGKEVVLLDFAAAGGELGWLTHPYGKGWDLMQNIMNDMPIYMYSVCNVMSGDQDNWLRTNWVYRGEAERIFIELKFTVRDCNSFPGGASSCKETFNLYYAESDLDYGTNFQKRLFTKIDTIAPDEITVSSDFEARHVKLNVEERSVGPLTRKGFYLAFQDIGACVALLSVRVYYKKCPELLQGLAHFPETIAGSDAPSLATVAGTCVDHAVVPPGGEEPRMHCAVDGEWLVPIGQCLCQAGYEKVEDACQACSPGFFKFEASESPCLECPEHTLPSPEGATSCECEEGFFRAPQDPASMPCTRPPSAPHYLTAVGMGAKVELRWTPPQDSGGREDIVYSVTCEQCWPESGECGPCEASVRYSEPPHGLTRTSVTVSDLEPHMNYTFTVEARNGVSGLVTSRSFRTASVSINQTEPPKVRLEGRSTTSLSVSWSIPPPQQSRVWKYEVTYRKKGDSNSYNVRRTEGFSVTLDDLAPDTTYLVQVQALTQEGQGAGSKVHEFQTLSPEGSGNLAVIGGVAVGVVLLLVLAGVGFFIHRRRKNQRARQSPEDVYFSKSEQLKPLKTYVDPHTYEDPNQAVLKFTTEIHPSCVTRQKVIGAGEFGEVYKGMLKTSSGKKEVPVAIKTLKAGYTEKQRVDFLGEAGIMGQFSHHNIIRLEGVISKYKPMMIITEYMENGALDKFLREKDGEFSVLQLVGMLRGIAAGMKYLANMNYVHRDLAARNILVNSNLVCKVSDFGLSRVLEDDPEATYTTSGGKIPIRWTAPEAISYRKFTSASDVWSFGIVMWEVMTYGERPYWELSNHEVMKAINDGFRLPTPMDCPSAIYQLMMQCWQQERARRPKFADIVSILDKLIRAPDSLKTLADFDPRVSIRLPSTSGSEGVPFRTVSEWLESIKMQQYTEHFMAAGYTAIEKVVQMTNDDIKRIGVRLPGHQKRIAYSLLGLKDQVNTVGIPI
Glycogen synthase kinase-3 beta, sequence (P49841 whole entry): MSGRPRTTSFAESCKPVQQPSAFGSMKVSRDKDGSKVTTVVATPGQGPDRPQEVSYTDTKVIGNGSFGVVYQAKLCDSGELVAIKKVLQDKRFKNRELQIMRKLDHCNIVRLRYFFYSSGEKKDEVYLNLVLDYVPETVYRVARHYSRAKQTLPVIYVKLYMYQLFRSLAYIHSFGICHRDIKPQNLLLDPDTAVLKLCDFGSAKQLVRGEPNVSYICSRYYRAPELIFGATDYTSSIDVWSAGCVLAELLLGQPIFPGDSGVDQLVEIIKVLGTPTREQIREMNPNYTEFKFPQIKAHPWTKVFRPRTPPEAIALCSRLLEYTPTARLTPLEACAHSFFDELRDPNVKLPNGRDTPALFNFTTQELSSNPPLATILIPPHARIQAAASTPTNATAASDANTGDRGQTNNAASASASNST
MAP kinase-activated protein kinase 2, sequence (P49137 whole entry): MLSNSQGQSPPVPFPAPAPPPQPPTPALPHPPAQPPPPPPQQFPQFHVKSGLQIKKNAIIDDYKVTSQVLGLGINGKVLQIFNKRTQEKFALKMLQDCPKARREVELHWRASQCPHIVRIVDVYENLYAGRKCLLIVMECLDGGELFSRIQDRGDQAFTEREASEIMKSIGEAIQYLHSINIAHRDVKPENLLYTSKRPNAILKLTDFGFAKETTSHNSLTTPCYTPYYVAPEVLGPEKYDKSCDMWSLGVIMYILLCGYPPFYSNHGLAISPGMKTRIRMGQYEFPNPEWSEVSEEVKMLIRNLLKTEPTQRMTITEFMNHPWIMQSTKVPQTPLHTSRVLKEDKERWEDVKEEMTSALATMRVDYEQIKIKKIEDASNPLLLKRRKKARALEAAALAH
Mitogen-activated protein kinase 8, sequence (P45983 whole entry): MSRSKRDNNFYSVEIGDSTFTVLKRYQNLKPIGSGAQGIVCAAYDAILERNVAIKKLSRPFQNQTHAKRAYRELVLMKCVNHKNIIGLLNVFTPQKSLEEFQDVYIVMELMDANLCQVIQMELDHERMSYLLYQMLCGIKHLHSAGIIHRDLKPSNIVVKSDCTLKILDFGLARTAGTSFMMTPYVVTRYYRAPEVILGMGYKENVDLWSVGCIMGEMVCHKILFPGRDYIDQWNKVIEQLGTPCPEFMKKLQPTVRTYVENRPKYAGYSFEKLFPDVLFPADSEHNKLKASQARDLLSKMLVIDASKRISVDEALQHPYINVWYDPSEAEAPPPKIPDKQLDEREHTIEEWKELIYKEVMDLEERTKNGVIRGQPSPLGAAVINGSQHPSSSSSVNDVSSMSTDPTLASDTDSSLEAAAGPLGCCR

How did the IC50 (Exodeoxyribonuclease V) turn out when `Oc1ccc(N=Nc2c(O)ccc3ccccc23)cc1` was run?
The IC50 was > 118000 nM (inactive).

And the IC50 (Nonstructural protein 1)?
The IC50 was 17500 nM (active).

Which results are given for `O=C(O)C1Nc2c(O)cc(Cl)c([N+](=O)[O-])c2C2C=CCC12` (configuration not stated)?
IC50 [1]: 175000 nM (active); IC50 [2]: 3840 nM (active)

With `O=C1C=C(N2CCCCC2)c2ccccc2C1=O` as the compound, how does the AC50 (INS1) read?
The AC50 was 4980 nM (active).

What does the source list for `Cc1n[nH]c2ccc(-c3cncc(OCC(N)Cc4cccc(Cl)c4)c3)cc12` (configuration not stated)?
Ki [3]: 25.1 nM (active); pKi [3]: 7.6; Ki (Ephrin type-A receptor 2): > 3160 nM (inactive); Ki (Aurora kinase A): 631 nM (active); Ki [4]: 1260 nM (active); Ki [5]: 1580 nM (active); Ki [6]: 15.8 nM (active); Ki [7]: 5.01 nM (active); Ki [8]: 79.4 nM (active); Ki [9]: 631 nM (active); Ki [10]: 2510 nM (active); Ki [11]: 0.794 nM (active); pKi [11]: 9.1; Ki [12]: 794 nM (active)

For `CC(=O)NC1C(=O)N(CCN2CCOCC2)c2ccc(F)cc21` (configuration not stated), which IC50 (Hexokinase HKDC1) is on record?
The IC50 was 14900 nM (active).

And the IC50 (SUMO-activating enzyme)?
Its IC50 is 12300 nM (active).

For `Clc1ccc2nc(-c3ccc(Br)s3)cn2c1`, which EC50 [13] is on record?
Its EC50 is > 67500 nM (inactive).
